Results reported in US20120122860A1, “SOLID FORMS OF SULFONAMIDES AND AMINO ACIDS” (Plexxikon, Inc., priority 2009, published 2012).
pIC50: −log10 of the molar value.

Legend:
[1] = molecular target: B-Raf V600E (Homo sapiens, UniProt P15056, V600E); assay: Kinase activity assay, B-Raf V600E; assay type: biochemical; details: read-out: activity toward kinase B-Raf V600E, IC50
[2] = molecular target: T1, A-Raf (Homo sapiens, UniProt P10398); assay: Kinase activity assay, A-Raf
T1 sequence (P10398 1-606): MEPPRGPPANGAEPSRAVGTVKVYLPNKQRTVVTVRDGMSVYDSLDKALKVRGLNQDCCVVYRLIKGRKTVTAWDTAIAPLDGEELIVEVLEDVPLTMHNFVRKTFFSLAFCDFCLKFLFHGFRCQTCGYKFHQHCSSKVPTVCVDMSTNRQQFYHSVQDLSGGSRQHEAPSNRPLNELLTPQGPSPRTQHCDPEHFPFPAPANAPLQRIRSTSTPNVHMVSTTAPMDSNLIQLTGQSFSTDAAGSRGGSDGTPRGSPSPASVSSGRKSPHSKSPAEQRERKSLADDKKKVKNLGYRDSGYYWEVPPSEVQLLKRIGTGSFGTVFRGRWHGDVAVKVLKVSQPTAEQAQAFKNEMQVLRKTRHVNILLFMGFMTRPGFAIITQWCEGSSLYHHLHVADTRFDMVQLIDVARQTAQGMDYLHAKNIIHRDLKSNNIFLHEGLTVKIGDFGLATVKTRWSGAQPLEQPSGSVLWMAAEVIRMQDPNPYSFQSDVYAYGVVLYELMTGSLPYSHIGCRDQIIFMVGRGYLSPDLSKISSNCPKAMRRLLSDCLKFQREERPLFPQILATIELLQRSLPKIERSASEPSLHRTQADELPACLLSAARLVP

[3] = molecular target: T2, TEC (Homo sapiens, UniProt P42680); assay: Kinase activity assay, TEC
T2 sequence (P42680 1-631): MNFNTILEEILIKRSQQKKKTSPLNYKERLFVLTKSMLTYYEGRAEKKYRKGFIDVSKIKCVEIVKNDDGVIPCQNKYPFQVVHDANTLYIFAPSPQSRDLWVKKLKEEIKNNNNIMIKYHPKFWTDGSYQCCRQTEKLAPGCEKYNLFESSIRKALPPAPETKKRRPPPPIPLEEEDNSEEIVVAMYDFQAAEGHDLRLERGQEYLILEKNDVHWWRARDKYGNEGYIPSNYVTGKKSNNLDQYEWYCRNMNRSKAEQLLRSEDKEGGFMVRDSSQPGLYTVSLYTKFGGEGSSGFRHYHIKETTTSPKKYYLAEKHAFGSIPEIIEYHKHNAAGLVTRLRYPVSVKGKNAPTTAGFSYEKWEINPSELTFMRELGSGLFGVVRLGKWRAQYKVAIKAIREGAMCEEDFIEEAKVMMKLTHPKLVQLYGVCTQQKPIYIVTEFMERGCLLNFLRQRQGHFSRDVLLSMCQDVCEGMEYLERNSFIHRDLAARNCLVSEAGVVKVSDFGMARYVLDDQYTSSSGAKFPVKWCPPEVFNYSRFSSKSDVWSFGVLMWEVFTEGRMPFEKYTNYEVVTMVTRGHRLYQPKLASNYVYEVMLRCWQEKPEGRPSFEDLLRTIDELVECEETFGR

[4] = molecular target: Kdr (Homo sapiens, UniProt P35968); assay: Kinase activity assay, Kdr
[5] = molecular target: B-Raf (Homo sapiens, UniProt P15056); assay: Kinase activity assay, B-Raf; assay type: biochemical; details: read-out: activity toward kinase B-Raf, IC50
[6] = molecular target: C-Raf (Homo sapiens, UniProt P04049); assay: Kinase activity assay, C-Raf
[7] = molecular target: Src (Homo sapiens, UniProt P12931); assay: Kinase activity assay, Src
[8] = molecular target: Kit (Homo sapiens, UniProt P10721); assay: Kinase activity assay, Kit

Measured: pIC50

Chain of B-Raf (P15056 whole entry): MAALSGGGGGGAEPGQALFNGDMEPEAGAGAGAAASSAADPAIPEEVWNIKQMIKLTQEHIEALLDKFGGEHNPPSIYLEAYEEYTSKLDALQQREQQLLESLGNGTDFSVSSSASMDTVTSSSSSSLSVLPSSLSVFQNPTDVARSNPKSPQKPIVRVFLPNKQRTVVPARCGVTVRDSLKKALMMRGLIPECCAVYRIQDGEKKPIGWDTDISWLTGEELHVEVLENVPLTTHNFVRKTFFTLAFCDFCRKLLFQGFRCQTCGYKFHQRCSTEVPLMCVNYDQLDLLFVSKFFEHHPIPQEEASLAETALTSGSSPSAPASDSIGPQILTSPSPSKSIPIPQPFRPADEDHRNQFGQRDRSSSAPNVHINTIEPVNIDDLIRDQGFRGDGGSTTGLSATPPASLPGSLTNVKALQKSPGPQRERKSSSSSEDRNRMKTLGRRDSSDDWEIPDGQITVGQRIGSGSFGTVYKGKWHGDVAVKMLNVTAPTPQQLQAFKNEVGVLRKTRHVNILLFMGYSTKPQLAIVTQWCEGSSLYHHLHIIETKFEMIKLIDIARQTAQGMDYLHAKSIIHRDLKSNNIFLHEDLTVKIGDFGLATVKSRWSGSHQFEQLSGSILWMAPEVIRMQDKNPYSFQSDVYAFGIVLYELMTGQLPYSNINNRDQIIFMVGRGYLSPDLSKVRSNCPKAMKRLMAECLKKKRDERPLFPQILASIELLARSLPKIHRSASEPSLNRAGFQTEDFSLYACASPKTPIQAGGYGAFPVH
Chain of Kit (P10721 26-976): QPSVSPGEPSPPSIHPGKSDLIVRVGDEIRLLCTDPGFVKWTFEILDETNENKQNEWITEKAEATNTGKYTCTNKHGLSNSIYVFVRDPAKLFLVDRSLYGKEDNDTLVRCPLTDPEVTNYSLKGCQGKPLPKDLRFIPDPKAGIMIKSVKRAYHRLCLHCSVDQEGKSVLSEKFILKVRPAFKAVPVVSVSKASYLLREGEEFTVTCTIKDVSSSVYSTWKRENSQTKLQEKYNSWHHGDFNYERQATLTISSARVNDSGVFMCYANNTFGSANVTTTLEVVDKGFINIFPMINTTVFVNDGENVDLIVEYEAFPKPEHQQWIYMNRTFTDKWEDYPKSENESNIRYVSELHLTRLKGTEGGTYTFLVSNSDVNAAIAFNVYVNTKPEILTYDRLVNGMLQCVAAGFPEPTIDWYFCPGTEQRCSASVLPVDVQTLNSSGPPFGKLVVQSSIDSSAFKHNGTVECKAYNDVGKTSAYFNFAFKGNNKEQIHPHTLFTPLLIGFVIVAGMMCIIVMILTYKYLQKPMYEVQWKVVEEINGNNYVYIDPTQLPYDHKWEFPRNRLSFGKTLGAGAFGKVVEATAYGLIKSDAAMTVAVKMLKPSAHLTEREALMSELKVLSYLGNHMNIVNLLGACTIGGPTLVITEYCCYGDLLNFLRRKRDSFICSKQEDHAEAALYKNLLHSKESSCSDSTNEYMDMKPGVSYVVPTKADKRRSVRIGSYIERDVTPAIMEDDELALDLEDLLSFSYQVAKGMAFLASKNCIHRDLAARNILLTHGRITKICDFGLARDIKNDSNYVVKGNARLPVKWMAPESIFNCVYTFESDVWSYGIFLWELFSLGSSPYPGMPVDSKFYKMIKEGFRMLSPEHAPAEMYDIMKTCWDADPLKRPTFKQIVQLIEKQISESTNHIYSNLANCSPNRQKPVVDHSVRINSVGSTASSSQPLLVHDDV
Chain of B-Raf V600E (P15056 whole entry V600E): as the sequence (P15056 whole entry) above, with V600E counted along it
Chain of Kdr (P35968 20-1356): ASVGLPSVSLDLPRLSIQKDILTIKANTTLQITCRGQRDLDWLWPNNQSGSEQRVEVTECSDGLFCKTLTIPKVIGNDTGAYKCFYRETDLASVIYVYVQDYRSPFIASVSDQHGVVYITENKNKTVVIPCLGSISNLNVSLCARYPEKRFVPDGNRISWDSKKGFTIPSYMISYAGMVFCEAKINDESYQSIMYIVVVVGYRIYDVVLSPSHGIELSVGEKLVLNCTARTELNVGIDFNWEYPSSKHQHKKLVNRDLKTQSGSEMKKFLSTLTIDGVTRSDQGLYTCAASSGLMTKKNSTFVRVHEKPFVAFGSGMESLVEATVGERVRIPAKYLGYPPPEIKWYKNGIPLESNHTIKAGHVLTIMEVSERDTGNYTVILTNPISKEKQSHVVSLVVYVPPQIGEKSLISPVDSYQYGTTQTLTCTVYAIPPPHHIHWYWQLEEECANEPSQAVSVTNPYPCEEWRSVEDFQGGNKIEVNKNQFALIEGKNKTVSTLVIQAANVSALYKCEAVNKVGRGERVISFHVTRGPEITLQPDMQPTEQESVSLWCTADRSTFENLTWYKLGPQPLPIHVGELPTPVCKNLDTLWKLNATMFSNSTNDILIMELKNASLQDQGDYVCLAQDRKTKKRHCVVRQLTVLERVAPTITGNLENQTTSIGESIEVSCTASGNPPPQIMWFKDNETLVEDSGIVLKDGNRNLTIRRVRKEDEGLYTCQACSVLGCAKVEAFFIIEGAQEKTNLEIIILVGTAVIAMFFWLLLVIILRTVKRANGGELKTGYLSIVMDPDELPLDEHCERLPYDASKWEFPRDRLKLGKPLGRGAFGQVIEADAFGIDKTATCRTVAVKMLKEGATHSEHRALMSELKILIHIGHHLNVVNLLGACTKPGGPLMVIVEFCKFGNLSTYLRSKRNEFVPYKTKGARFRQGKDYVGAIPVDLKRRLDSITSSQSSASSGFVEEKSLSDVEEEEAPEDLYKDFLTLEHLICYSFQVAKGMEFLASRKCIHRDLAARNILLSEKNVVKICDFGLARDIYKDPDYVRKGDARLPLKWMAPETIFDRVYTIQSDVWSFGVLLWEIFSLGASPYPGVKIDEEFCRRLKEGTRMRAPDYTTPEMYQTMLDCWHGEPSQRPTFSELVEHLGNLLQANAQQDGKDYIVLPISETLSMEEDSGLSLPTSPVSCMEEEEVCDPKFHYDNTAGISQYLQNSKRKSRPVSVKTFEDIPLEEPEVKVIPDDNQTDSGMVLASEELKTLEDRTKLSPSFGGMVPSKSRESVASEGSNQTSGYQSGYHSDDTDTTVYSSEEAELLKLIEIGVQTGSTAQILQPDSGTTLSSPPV
Chain of C-Raf (P04049 whole entry): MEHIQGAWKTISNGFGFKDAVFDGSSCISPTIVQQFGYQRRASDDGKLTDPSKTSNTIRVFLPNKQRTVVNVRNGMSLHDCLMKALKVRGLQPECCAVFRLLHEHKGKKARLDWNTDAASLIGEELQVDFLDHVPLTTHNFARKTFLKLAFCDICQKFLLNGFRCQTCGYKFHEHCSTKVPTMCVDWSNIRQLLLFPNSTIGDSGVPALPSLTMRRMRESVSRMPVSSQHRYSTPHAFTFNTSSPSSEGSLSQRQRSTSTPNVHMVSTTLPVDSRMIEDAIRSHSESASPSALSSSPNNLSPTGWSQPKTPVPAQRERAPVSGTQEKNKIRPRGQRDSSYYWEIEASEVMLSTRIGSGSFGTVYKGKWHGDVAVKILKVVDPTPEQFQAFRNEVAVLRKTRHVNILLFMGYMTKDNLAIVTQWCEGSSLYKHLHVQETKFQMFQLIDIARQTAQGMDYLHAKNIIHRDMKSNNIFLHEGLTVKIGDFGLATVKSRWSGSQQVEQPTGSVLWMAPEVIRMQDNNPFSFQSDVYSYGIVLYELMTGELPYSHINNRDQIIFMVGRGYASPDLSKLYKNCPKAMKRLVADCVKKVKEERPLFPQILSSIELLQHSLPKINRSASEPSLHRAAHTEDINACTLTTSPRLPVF
Chain of Src (P12931 whole entry): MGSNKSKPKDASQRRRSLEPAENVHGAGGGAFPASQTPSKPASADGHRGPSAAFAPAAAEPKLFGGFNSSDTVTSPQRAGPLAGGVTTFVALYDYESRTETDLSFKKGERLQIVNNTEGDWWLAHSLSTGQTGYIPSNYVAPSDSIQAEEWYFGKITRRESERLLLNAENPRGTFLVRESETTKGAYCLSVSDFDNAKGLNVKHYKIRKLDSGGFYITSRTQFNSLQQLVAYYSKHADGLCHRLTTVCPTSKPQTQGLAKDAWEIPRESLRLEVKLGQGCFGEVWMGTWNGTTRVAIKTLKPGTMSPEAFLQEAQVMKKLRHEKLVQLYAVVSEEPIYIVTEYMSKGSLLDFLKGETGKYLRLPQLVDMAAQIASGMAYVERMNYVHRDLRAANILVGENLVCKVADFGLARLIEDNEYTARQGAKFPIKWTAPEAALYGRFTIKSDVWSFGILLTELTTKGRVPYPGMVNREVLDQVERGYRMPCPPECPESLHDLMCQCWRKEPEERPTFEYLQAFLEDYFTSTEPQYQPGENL

C#Cc1ccnc2[nH]cc(C(=O)c3c(F)ccc(NS(=O)(=O)CCC)c3F)c12 [P-2261, Propane-1-sulfonic acid [3-(4-ethynyl-1H-pyrrolo[2,3-b]pyridine-3-carbonyl)-2,4-difluoro-phenyl]-amide]
not listed: [8]
≥ 5.00: all other assays above

COc1ccnc2[nH]cc(C(=O)c3c(F)ccc(NS(=O)(=O)c4ccc(C(F)(F)F)cc4)c3F)c12 [P-2047, N-[2,4-Difluoro-3-(4-methoxy-1H-pyrrolo[2,3-b]pyridine-3-carbonyl)-phenyl]-4-trifluoromethyl-benzenesulfonamide]
not listed: [4]
≥ 5.00: all other assays above

N#Cc1cnc2[nH]cc(C(=O)c3c(F)ccc(NS(=O)(=O)c4ccccc4)c3F)c2c1 [P-2046, N-[3-(5-Cyano-1H-pyrrolo[2,3-b]pyridine-3-carbonyl)-2,4-difluoro-phenyl]-benzenesulfonamide]
not listed: [4]
≥ 5.00: all other assays above

CCCS(=O)(=O)Nc1ccc(F)c(C(=O)c2c[nH]c3ncc(CCCN4CCCC4)cc23)c1F [P-2248, Propane-1-sulfonic acid {2,4-difluoro-3-[5-(3-pyrrolidin-1-yl-propyl)-1H-pyrrolo[2,3-b]pyridine-3-carbonyl]-phenyl}-amide]
not listed: [7] | [8]
≥ 5.00: all other assays above

N#Cc1ccnc2[nH]cc(C(=O)c3c(F)ccc(NS(=O)(=O)c4ccccc4F)c3F)c12 [P-2020, N-[3-(4-Cyano-1H-pyrrolo[2,3-b]pyridine-3-carbonyl)-2,4-difluoro-phenyl]-2-fluoro-benzenesulfonamide]
≥ 5.00: all assays above

CCCS(=O)(=O)Nc1ccc(F)c(C(=O)c2c[nH]c3ncc(CO)cc23)c1F [P-2250, Propane-1-sulfonic acid [2,4-difluoro-3-(5-hydroxymethyl-1H-pyrrolo[2,3-b]pyridine-3-carbonyl)-phenyl]-amide]
not listed: [7] | [8]
≥ 5.00: all other assays above

CCCS(=O)(=O)Nc1ccc(F)c(C(=O)c2c[nH]c3ncc(CN4CCN(C)CC4)cc23)c1F [P-2257, Propane-1-sulfonic acid {2,4-difluoro-3-[5-(4-methyl-piperazin-1-ylmethyl)-1H-pyrrolo[2,3-b]pyridine-3-carbonyl]-phenyl}-amide]
≥ 5.00: [1] | [2] | [3] | [5] | [6]
